Experimental data reported in patent publication US20030138429A1, “Compositions and methods for inhibiting metastasis” (priority 2001, published 2003).

Each compound was assayed on 1-LN cells (assay: In vitro Matrigel invasion assay (modified Boyden chamber)). Details: Matrigel invasion by 1-LN cells.
Format: cell-based, human
Method: In Vitro Invasion Assay—The invasive activity in vitro was assessed by determining the ability of 1-LN cells to invade Matrigel® [47]. Polycarbonate filters (8-μm pore size; Becton Dickinson, Franklin Lakes, N.J.) were coated with Matrigel (12 μg/filter) and placed in a modified Boyden chamber. Cells (1×10^5) were added to the upper chamber in serum-free RPMI 1640 medium, or medium containing purified Pg 2 glycoforms in the absence and presence of anti-DPP IV, anti-u-PA or anti-MMP-9 IgGs, and incubated for 48 h in a humidified atmosphere. Following incubation, non-invading cells were removed from the upper chamber with a cotton swab, and filters were excised and stained with Cyto-Quik™ (Fisher Scientific, Fair Lawn, N.J.). Cells on the lower surface of the filter were enumerated using an ocular micrometer and counting a minimum of five high-powered fields. Each experiment was performed twice with triplicate samples.
Effect of Pg on 1-LN Cellular Invasion—Pg enhances the ability of prostate cancer PC-3 and DU-145 cell lines to penetrate the synthetic basement membrane Matrigel® [54]. To determine whether Pg regulates invasion via secretion of MMP-9, 1-LN cells were incubated with different inhibiting antibodies in the presence of purified Pg 2 glycoforms.

| Compound | Enhancement of cellular invasion |
| --- | --- |
| Pg 2ε: glycoform of human plasminogen type 2 purified from plasma; 5.34 mol sialic acid/mol Pg | 6-7 fold |

Same assay, conditions: Serum-Free Medium + glycoform 0.1 μM

| Compound | Relative Invasion (Number of Cells/Field) |
| --- | --- |
| Pg 2α: glycoform of human plasminogen type 2 purified from plasma; 1.3 mol sialic acid/mol Pg | 13.5 ± 3.4 Number of Cells/Field |
| Pg 2β: glycoform of human plasminogen type 2 purified from plasma; 2.2 mol sialic acid/mol Pg | 9.4 ± 2.1 Number of Cells/Field |
| Pg 2γ: glycoform of human plasminogen type 2 purified from plasma; 2.95 mol sialic acid/mol Pg | 7.8 ± 1.6 Number of Cells/Field |
| Pg 2δ: glycoform of human plasminogen type 2 purified from plasma; 5.77 mol sialic acid/mol Pg | 9.2 ± 2.5 Number of Cells/Field |
| Pg 2ε: glycoform of human plasminogen type 2 purified from plasma; 5.34 mol sialic acid/mol Pg | 46.6 ± 5.4 Number of Cells/Field |
| Pg 2φ: glycoform of human plasminogen type 2 purified from plasma; 13.65 mol sialic acid/mol Pg | 6.8 ± 1.3 Number of Cells/Field |

Same assay, conditions: glycoform 0.1 μM +Anti-DPP IV IgG 50 μg/ml

| Compound | Relative Invasion (Number of Cells/Field) |
| --- | --- |
| Pg 2γ: glycoform of human plasminogen type 2 purified from plasma; 2.95 mol sialic acid/mol Pg | 4.6 ± 2.7 Number of Cells/Field |
| Pg 2δ: glycoform of human plasminogen type 2 purified from plasma; 5.77 mol sialic acid/mol Pg | 10.4 ± 3.1 Number of Cells/Field |
| Pg 2ε: glycoform of human plasminogen type 2 purified from plasma; 5.34 mol sialic acid/mol Pg | 3.1 ± 1.6 Number of Cells/Field |

Same assay, conditions: glycoform 0.1 μM +Anti-MMP-9 IgG 20 μg/ml

| Compound | Relative Invasion (Number of Cells/Field) |
| --- | --- |
| Pg 2γ: glycoform of human plasminogen type 2 purified from plasma; 2.95 mol sialic acid/mol Pg | 2.1 ± 1.2 Number of Cells/Field |
| Pg 2δ: glycoform of human plasminogen type 2 purified from plasma; 5.77 mol sialic acid/mol Pg | 1.8 ± 1.0 Number of Cells/Field |
| Pg 2ε: glycoform of human plasminogen type 2 purified from plasma; 5.34 mol sialic acid/mol Pg | 1.5 ± 1.0 Number of Cells/Field |

Same assay, conditions: glycoform 0.1 μM +Anti-u-PA IgG 100 μg/ml

| Compound | Relative Invasion (Number of Cells/Field) |
| --- | --- |
| Pg 2γ: glycoform of human plasminogen type 2 purified from plasma; 2.95 mol sialic acid/mol Pg | 5.3 ± 2.8 Number of Cells/Field |
| Pg 2δ: glycoform of human plasminogen type 2 purified from plasma; 5.77 mol sialic acid/mol Pg | 7.8 ± 2.6 Number of Cells/Field |
| Pg 2ε: glycoform of human plasminogen type 2 purified from plasma; 5.34 mol sialic acid/mol Pg | 2.1 ± 1.3 Number of Cells/Field |

What follows are compounds tested against T1, DPP IV isolated from 1-LN cell membranes (Homo sapiens, UniProt P27487) (assay: Solid phase radioligand binding of Pg 2 glycoforms to immobilized DPP IV). Details: DPP IV 1 μg/ml coated on 96-well plates, in words.
T1 construct: DPP IV from 1-LN cell membranes was purified to homogeneity as described under Experimental Procedures; endogenous in cells; host or cells: 1-LN human prostate tumor cells; Membranes were solubilized with Triton X-100; The enzyme was then purified on DEAE-Sepharose, Gly-Leu-Sepharose, concanavalin A-Sepharose and by gel filtration
T1 sequence (P27487 whole entry): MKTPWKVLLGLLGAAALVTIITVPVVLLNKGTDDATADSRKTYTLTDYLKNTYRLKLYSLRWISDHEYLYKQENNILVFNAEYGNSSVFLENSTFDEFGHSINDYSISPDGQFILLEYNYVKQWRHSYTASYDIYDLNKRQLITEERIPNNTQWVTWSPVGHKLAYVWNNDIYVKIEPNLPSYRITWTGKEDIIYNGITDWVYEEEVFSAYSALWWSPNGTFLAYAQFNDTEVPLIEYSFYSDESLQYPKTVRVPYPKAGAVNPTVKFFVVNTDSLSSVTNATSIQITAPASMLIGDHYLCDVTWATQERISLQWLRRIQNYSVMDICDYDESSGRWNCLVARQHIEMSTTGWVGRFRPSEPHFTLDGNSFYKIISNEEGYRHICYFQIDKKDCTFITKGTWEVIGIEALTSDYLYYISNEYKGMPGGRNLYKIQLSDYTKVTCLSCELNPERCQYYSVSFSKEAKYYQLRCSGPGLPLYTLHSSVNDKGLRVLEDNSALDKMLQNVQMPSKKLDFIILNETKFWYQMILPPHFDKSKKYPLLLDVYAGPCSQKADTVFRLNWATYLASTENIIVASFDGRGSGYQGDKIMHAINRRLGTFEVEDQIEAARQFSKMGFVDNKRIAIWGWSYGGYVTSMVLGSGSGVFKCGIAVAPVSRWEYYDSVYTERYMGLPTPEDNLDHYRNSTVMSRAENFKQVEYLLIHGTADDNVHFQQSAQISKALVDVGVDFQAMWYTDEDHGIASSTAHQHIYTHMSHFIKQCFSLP
Method: Purification of DPP IV from 1-LN Cell Membranes—Cells grown in 20 culture flasks (150 cm^2) were detached with 10 mM EDTA in Hanks' balanced salt solution (HBSS) and pelleted by centrifugation. The cell pellet was suspended in 10 ml of 20 mM Hepes, pH 7.2, containing 0.25 M sucrose and 0.5 mg/ml each of the following proteinase inhibitors: antipain-HCl, bestatin, chymostatin, transepoxysuccinyl-L-leucylamido-(4-guanidino)butane (E-64), leupeptin, pepstatin, O-phenanthroline, and aprotinin. Cells were lyzed by sonication on ice (five 10 s bursts with 30 s intervals). All procedures were performed at 4° C. The homogenate was centrifuged at 800×g for 15 min to remove unbroken cells and nuclei, followed by centrifugation of the supernatant at 50,000×g for 1 h. The pellet containing cell membranes was resuspended in 20 mM Tris-HCl, pH 8.0, containing 1% (v/v) Triton X-100 to solubilize membranes and centrifuged again at 50,000×g for 30 min to remove insoluble materials. DPP IV activity in this supernatant and in all the following purification steps was monitored by a chromogenic assay using the DPP IV substrate Gly-Pro-pNA [36]. The enzyme was sequentially purified to homogeneity using DEAE-Sepharose ion exchange chromatography and Gly-Leu-Sepharose affinity chromatography, followed by chromatography on concanavalin A-Sepharose and gel filtration on a Sepharose S-200 column. These steps yielded fully active DPP IV (˜40 μg/1×10^9 cells). […] A sample of the protein was analyzed by matrix-assisted laser desorption ionization-MS, and the obtained mass spectrometric peptide maps (30 peptides) were used to identify DPP IV in the OWL Protein database release 29.6 [38,39].
Solid Phase Radioligand Binding Studies—To study specific binding of Pg 2 glycoforms to immobilized DPP IV purified from 1-LN cells, 96-well strip plates were coated with DPP IV (1 μg/ml in 0.1 M sodium carbonate, pH 9.6, 200 μl/well, 37° C., 2 h). After coating, plates were washed with 200 μl of 10 mM sodium phosphate, 100 mM NaCl, pH 7.4, containing 0.05% Tween-80 (PBS-Tween) to remove unbound protein. Non-specific sites were blocked by incubating with PBS-Tween containing 2% BSA at room temperature for 1 h. Plates were rinsed twice with 200 μl of PBS-Tween, air dried, and stored at 4° C. For assays, increasing concentrations of ^125I-labeled Pg 2 glycoforms, with or without 50-fold excess of unlabeled ligands, were added to triplicate wells and incubated at 37° C. for 1 h. Following incubation, the supernatants were removed and the plates rinsed three times with 200 μl PBS-Tween. Wells were stripped from the plates and radioactivity measured. Specific binding was calculated by substraction of non-specific binding measured in the presence of unlabeled ligand.
Binding of Pg 2 Glycoforms to Immobilized DPP IV Isolated from 1-LN Cell Membranes—Once identified as a Pg receptor, DPP IV from 1-LN cell membranes was purified to homogeneity as described under Experimental Procedures. […] A blot binding assay with mAb clone in the Mr˜120,000 size range. […] DPP IV immobilization on cell culture plates and binding assays of Pg 2 glycoforms were performed as described under Experimental Procedures.

| Compound | Binding to immobilized DPP IV |
| --- | --- |
| Pg 2α: glycoform of human plasminogen type 2 purified from plasma; 1.3 mol sialic acid/mol Pg | No specific binding |
| Pg 2β: glycoform of human plasminogen type 2 purified from plasma; 2.2 mol sialic acid/mol Pg | No specific binding |
| Pg 2γ: glycoform of human plasminogen type 2 purified from plasma; 2.95 mol sialic acid/mol Pg | bind to this DPP IV in a dose-dependent and saturable manner |
| Pg 2δ: glycoform of human plasminogen type 2 purified from plasma; 5.77 mol sialic acid/mol Pg | bind to this DPP IV in a dose-dependent and saturable manner |
| Pg 2ε: glycoform of human plasminogen type 2 purified from plasma; 5.34 mol sialic acid/mol Pg | bind to this DPP IV in a dose-dependent and saturable manner |
| Pg 2φ: glycoform of human plasminogen type 2 purified from plasma; 13.65 mol sialic acid/mol Pg | No specific binding |

Same assay, conditions: glycoforms 0.1 μM each, increasing concentrations of L-lactose

| Compound | Inhibition of binding of 125I-labeled Pg 2γ, 2δ and 2ε to DPP IV |
| --- | --- |
| OC[C@@H]1O[C@H](O[C@@H]2[C@@H](O)[C@H](O)C(O)O[C@H]2CO)[C@@H](O)[C@H](O)[C@@H]1O (stereo partly drawn) [L-lactose, reference compound] | progressively inhibited |

These compounds were tested on 1-LN cells (assay: [Ca2+]i response of 1-LN cells (Fura-2/AM digital imaging microscopy)). Details: Yes/No.
Format: cell-based, human
Method: Measurement of Intracellular Calcium Levels—Cystolic free calcium [Ca^2+]i, was measured by Digital Imaging Microscopy (DIM) using the fluorescent indicator Fura-2/AM as previously described.
[Ca^2+]i Response to Pg 2 Glycoforms Binding on the Surface of 1-LN Cells—We measured changes in [Ca^2+]i after binding of each individual Pg 2 glycoform to the surface of 1-LN cells. […] Similarly, cells were incubated at 37° C. for 1 h with anti-u-PA or anti-p IgGs (100 μg/ml) which inhibit enzymatic activity prior to addition of the highly sialylated glycoforms (Pgs 2γ, 2δ, and 2ε).

| Compound | [Ca^2+]i Increase |
| --- | --- |
| Pg 2α: glycoform of human plasminogen type 2 purified from plasma; 1.3 mol sialic acid/mol Pg | No |
| Pg 2β: glycoform of human plasminogen type 2 purified from plasma; 2.2 mol sialic acid/mol Pg | No |
| Pg 2γ: glycoform of human plasminogen type 2 purified from plasma; 2.95 mol sialic acid/mol Pg | Yes |
| Pg 2δ: glycoform of human plasminogen type 2 purified from plasma; 5.77 mol sialic acid/mol Pg | Yes |
| Pg 2ε: glycoform of human plasminogen type 2 purified from plasma; 5.34 mol sialic acid/mol Pg | Yes |

Same assay, conditions: glycoform 0.1 μM, in words

| Compound | [Ca2+]i response after binding of glycoform |
| --- | --- |
| Pg 2α: glycoform of human plasminogen type 2 purified from plasma; 1.3 mol sialic acid/mol Pg | did not produce any changes |
| Pg 2β: glycoform of human plasminogen type 2 purified from plasma; 2.2 mol sialic acid/mol Pg | did not produce any changes |
| Pg 2γ: glycoform of human plasminogen type 2 purified from plasma; 2.95 mol sialic acid/mol Pg | elicited a [Ca^2+]i response |
| Pg 2δ: glycoform of human plasminogen type 2 purified from plasma; 5.77 mol sialic acid/mol Pg | elicited a [Ca^2+]i response |
| Pg 2ε: glycoform of human plasminogen type 2 purified from plasma; 5.34 mol sialic acid/mol Pg | elicited a [Ca^2+]i response |
| Pg 2φ: glycoform of human plasminogen type 2 purified from plasma; 13.65 mol sialic acid/mol Pg | No response |
